Measurements reported in patent US12678425B2, “Methods for treating against viruses” (Howard University, priority 2019, dated 2026).

How the values were obtained:
HEp-2 cells = test: Trypan blue exclusion cell viability; format: cell-based; details: 24-hour treatment
Procedure: In order to assess whether the compounds are producing any toxicity that can led to the cell deaths, we evaluated the cell viability by the trypan blue exclusion method. As long-term inhibition of RACK1 expression has been reported to cell cycle arrest, we limited our experimental treatments to 24 h and evaluated the cell viability of almost full confluent cells after 24 h of compound treatment.
In table 2, the viability of cells was measured with Trypan blue exclusion assay in a Cellometer (Nexcelom, Lawrence, MA). The percentage survival of the compound treated cells was evaluated along with the DMSO treated cells. The values represent the mean f SE of three separate well based replicates.

[1] = tested on: RACK1A Y248 phosphorylation; test: Immunoblot of ABA-induced RACK1A Y248 phosphorylation in seedlings; format: cell-based, Arabidopsis; details: 10 μM ABA, 12 hours
[2] = tested on: HSV-1 proteins (ICP0, ICP8, gD); test: Western blot of HSV-1 proteins in pre-treated HEp-2 cells; format: cell-based; details: 100 μM, 24 hours pre-treatment, 24 h post infection
Procedure: (§1) Panel A of FIG. 8 depicts time and concentration dependent virus protein expression to deduce an optimum drug treatment regimen. […] Tubulin expression was used as the loading control for the blots.
(§2) Proteins were separated by SDS-PAGE (25 μg loaded in each lane), transferred to nitrocellulose membranes (Amersham Inc., Piscataway, NJ, USA), and blocked with 5% nonfat milk for 60 min at room temperature. Membranes were incubated overnight at 4° C. with primary antibody, followed by incubation with a horseradish peroxidase-coupled secondary antibody and detection with enhanced chemiluminescence (Pierce, Rockford, IL, USA), according to standard methods. Membranes were stripped with stripping buffer (100 mM 2-mercaptoethanol, 2% SDS, 62.5 mM Tris-HCl, pH 6.8), washed with PBS-0.1% Tween-20, and used to detect additional proteins. For Arabidopsis lysates one-week old seedlings were treated with 10 uM of ABA in the presence/absence of the inhibitor compounds for 12 hours in a growth chamber (overnight) at 22° C. mostly in the dark. Lysates were isolated in lysis buffer (Cell Signaling, Danvers, MA) supplemented with plant protease inhibitor (Sigma-Aldrich), phosphatase inhibitor cocktail A and B (Santa Cruz Biotechnology, Dallas, TX), and N-Ethylamaleimide (Sigma-Aldrich, St. Louis, MO). […]

RACK1 = molecular target: T1, RACK1 (Homo sapiens, UniProt P63244); test: Western blot of RACK1 in pre-treated, HSV-1 infected HEp-2 cells; format: cell-based; details: 100 μM, 24 hours pre-treatment, 24 h post infection
T1 construct: endogenous in cells; host or cells: HEp-2 cells (ATCC), infected with HSV-1
Procedure: as §1, §2

HSV-1 strain 17 = test: Plaque formation unit (pfu) assay in HEp-2 cells
Procedure: The viral plaque assay was performed as previously described (Tang et al. “Determination of minimum herpes simplex virus type 1 components necessary to localize transcriptionally active DNA to ND10,” J. Virol. 2003; 77:5821-28), with slight modifications. The HSV-1 strain 17 was diluted serially in a volume of 1 mL. Then 300 ul of the virus was added onto confluent HEp-2 cell monolayers in 12-well plates; each dilution had 3 wells. After adsorption for 2 h, the medium was removed and the cells were washed twice with serum-free DMEM and overlaid with phenol-free DMEM containing 5% FCS, 0.5% low-melting point agarose (GIBCO), and 1% penicillin-streptomycin. The cells were incubated at 370 C for 48 hours. Neutral red was added on the agarose to stain the live cells. The plaques were counted and reported as pfu per mL. Mean pfu was determined after averaging the number of pfu from different dilutions.

RACK1 protein expression = test: Immunoblot of RACK1 expression under salt stress
Source text: The abundant leaf protein Rubisco large subunit (RbcL) was used as a loading control for the blot.
As the antibody cross-reacts with all three RACK1 isoforms in Arabidopsis, we used the double knockout (rack1ab) as a negative control on the blot (triple mutant is lethal at the early seedling stage). The large subunit of the abundant leaf protein rubisco (RbcL) was used as loading control for this blot.

HSV-1 ICP0 protein = test: Immunofluorescence and confocal microscopy of ICP0 in Hep-2 cells; format: cell-based; details: 10 μM, HSV-1 MOI 1.0, 30 h
Procedure: The HEp-2 cells were infected with HSV-1 at an MOI of 1.0 for 30 h along with the indicated compounds and control. The cells were fixed with 4% paraformaldehyde and stained with anti-ICPO-FITC in green and DAPI (blue for DNA label in the nucleus). The slides were observed under a Nikon confocal microscope (60× magnification lens) and pictures were taken to show infected cells (green) and total cells (DAPI). All scale bars correspond to 20 μm. The imaging experiments were performed three independent times, and the results as shown are representative of one of three experiments.
Hep-2 cells were grown to about 80% confluency in 12 well plate and the cells were co-infected with HSV-1 at an MOI of 1.0 for 30 h along with the indicated inhibitor compounds and control. The cells were fixed at room temperature with 4% paraformaldehyde-PBS for 15 minutes and then permeabilized at room temperature by 0.5% Triton X-100-PBS (pH 7.4) for 10 min. The cells were then washed 3× with Ice cold PBS. The cells were incubated with 1% BSA, 22.52 mg/mL glycine in PBST (PBS+0.1% Tween 20) for 30 min to block unspecific binding of the antibodies. The cells were incubated in the 1:500 diluted anti-ICP0 antibody in 1% BSA in PBST in a humidified chamber overnight at 4° C. […]

[3] = tested on: Hep-2 cells infected with HSV-1; test: Fluorescence cell sort in Cellometer, HSV-1 infected Hep-2 cells; format: cell-based, human; details: 24-h incubation, HSV-1 MOI 1.0
Procedure: FIG. 13 depicts the quantification of fluorescent cells by Image based cell sorting in a Cellometer (Nexcelom Vision), based on the experiments depicted in FIG. 12. […] The cells were prepared by immunostaining with ICP0 antibody after 24-h incubation with the indicated compounds. The total cell counts were 1.01×10^6/ml, 4.69×10^6/ml, and 5.36×10^6/ml for DMSO, SD29-14 (10 μM), and SD29-14 (100 μM) respectively. The numbers show the mean f SE of three replicates.
Fluorescence Cell Sort: Hep-2 cells were grown to about 80% confluency in T25 Cell culture flask and were co-infected with HSV-1 at a MOI of 1.0 for 24 h along with the indicated inhibitor compounds and control. After trypsinization, the cells were fixed in 4% paraformaldehyde-PBS. The cells were treated in the same method as described in the immunofluorescence and confocal microscopy method section. The labeled cells were counted in a Nexcelom Vision Cellometer equipped with Brightfield & 2 Fluorescence Channels Filter Set 101: Excitation/Emission Peak: 475 nm/535 nm and Filter Set 202: Excitation/Emission Peak: 525 nm/595 nm. […] Bright-field and fluorescent images were then captured and analyzed at four different locations by the Cellometer image analysis software to directly determine the cell concentration of fluorescently labelled cells. […]

HSV-1 = test: Protection from HSV-1 cytopathic effect in HEp-2 cells (microscopy); format: cell-based; details: different concentrations, 24 h
Source text: FIG. 15 depicts the results of in vitro testing to confirm the protective effect of a representative compound (SD-29-14) from the cytopathic effect caused by HSV-1. […] After washing away the virus with PBS, images were taken under a compound microscope.

Human Annexin A2 = test: LC-MS of Annexin A2 abundance after compound treatment; format: cell-based; design: Annexin A2 fragment abundance: reference not given here; details: for Abundance ratio 1: SD29-14 over DMSO (10 uM); for Abundance ratio 2: SD29-14 over DMSO (100 uM)
Procedure: To further confirm this mechanism of action, LC-MS (Liquid Chromatography-Mass Spectrometry) was conducted to determine the effect of RACK1 inhibition on ANXA2 expression.

Nn1c(S)nnc1-c1ccc(F)cc1 [SD-29]
HEp-2 Cell viability, Mean (percentage survival) (HEp-2 cells; 10 μM): 94.0%
HEp-2 Cell viability, Mean (percentage survival) (HEp-2 cells; 100 μM): 92.7%
ABA-induced RACK1A Y248 phosphorylation [1]: prevented the ABA-induced Y248 phosphorylation
viral protein levels (ICP0, ICP8, gD) [2]: lower than that of DMSO- or SD-29-12-treated HEp-2 cells
production of RACK1 (RACK1): reduced the production of RACK1
Plaque formation unit (pfu) (HSV-1 strain 17; 0 hpl): 0 ± 0 PFU/mL
Plaque formation unit (pfu) (HSV-1 strain 17; 6 hpl): 0 ± 0 PFU/mL
RACK1 protein expression under salt stress (RACK1 protein expression): inhibited RACK1 protein expression

Nn1c(S)nnc1-c1cc(Cl)cc(Cl)c1 [SD-29-14]
HEp-2 Cell viability, Mean (percentage survival) (HEp-2 cells; 10 μM): 97.5%
HEp-2 Cell viability, Mean (percentage survival) (HEp-2 cells; 100 μM): 93.7%
ABA-induced RACK1A Y248 phosphorylation [1]: prevented the ABA-induced Y248 phosphorylation
expression of ICP0 protein (immunofluorescence) (HSV-1 ICP0 protein): effectively eliminated any expression of ICP0 protein
total cell counts ([3]; 10 μM): 4.69e+06 mL⁻¹
total cell counts ([3]; 100 μM): 5.36e+06 mL⁻¹
cytopathic effect caused by HSV-1 (HSV-1): do not show the cytopathic effect
abundance of human ANXA2 (Human Annexin A2; LC-MS, SD29-14 treatment): increased abundance
Annexin A2 fragment abundance (Human Annexin A2; fragment DALNIETAIK, 10 uM): 317727.9
Annexin A2 fragment abundance (Human Annexin A2; fragment DALNIETAIK, 100 uM): 130507.6
Abundance ratio 1 (Human Annexin A2; fragment DALNIETAIK): 7.765
Abundance ratio 2 (Human Annexin A2; fragment DALNIETAIK): 3.19
Annexin A2 fragment abundance (Human Annexin A2; fragment GVDEVTIVNILTNR, 10 uM): 133381
Annexin A2 fragment abundance (Human Annexin A2; fragment GVDEVTIVNILTNR, 100 uM): 9540
Abundance ratio 1 (Human Annexin A2; fragment GVDEVTIVNILTNR): >100
Abundance ratio 2 (Human Annexin A2; fragment GVDEVTIVNILTNR): >100
Annexin A2 fragment abundance (Human Annexin A2; fragment TNQELQEINR, 10 uM): 462054
Annexin A2 fragment abundance (Human Annexin A2; fragment TNQELQEINR, 100 uM): 190293
Abundance ratio 1 (Human Annexin A2; fragment TNQELQEINR): 10.502
Abundance ratio 2 (Human Annexin A2; fragment TNQELQEINR): 4.325

COc1ccc(-c2nnc(SCC(=O)O)n2N)cc1 [SD-29-12]
HEp-2 Cell viability, Mean (percentage survival) (HEp-2 cells; 10 μM): 92.7%
HEp-2 Cell viability, Mean (percentage survival) (HEp-2 cells; 100 μM): 97.7%
Plaque formation unit (pfu) (HSV-1 strain 17; 0 hpl): 0 ± 0 PFU/mL
Plaque formation unit (pfu) (HSV-1 strain 17; 6 hpl): 3.8 ± 0.07 × 10^2 PFU/mL
Plaque formation unit (pfu) (HSV-1 strain 17; 12 hpl): 3.6 ± 0.04 × 10^3 PFU/mL
Plaque formation unit (pfu) (HSV-1 strain 17; 24 hpl): 2.6 ± 0.03 × 10^6 PFU/mL
